Measured values: US6413974B1, “6,9,-disubstituted 2-[trans-(4-aminocyclohexyl) amino] purines” (Aventis Pharmaceuticals Inc., priority 1998, dated 2002)
Several values for one entry are separate records, joined by “and”; a condition that tells them apart may be missing. Identical values can stand only once. Counter-ions that a name gives are not always drawn. Like-named read-outs stand apart in the source and are kept apart here.

Assays:
HCT-15 = experiment: In vitro tumor cell proliferation, HCT-15; type: cell-based, human; details: read-out: In vitro Tumor Cell Proliferation (IC50, μM) Colon HCT-15
Method: (§1) The proliferation of tumor cells was measured using a sulforhodamine B assay as described in Skehan, P., et al., J. Natl. Cancer Inst. […] Tumor cells were harvested with trypsin-EDTA, cells that excluded trypan blue were counted, added to 96-well plates and incubated overnight at 37° C. Drug was added to the wells following dilution in culture medium. Three days later, the medium was removed and replenished with medium containing fresh drug and incubated an additional 4 days. The cells were then fixed with 0.1 ml 10% trichloroacetic acid for 60 min at 4° C. The plates were rinsed five times with tap water, air-dried and stained for 30 min with 0.4% sulforhodamine B in 1% acetic acid and air-dried.
(§2) Alternatively, the CyQUANT cell proliferation assay was used to quantify tumor cell proliferation. Tumor cells were harvested with trypsin-EDTA, cells that excluded trypan blue were counted, added to 96-well plates and incubated overnight at 37° C. Drug was added to the wells following dilution in culture medium. Three days later the medium was removed and the plates frozen at −80° C. for at least 30 minutes.

DMS-114 = experiment: In vitro tumor cell proliferation, DMS-114; type: cell-based, human; details: read-out: In vitro Tumor Cell Proliferation (IC50, μM) Lung DMS-114
Outline: (§3)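 Viable (trypan blue-excluding) cells plated and left overnight at 37° C, then exposed to drug for 3 days, refed with fresh drug-containing medium for 4 more days. TCA-fixed cells stained with 0.4% sulforhodamine B; alternatively, CyQUANT read after 3 days of drug and freezing at −80° C.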

cdk4/cyclin D1 = molecular target: T1, cdk4/cyclin D1 (Homo sapiens, UniProt P11802); experiment: Cyclin-dependent kinase 4 Assay; type: biochemical; details: cdk4/cyclin D1, GST-Rb substrate, 10 μM ATP, 30 min at 37° C.; read-out: CDK4 Inhibition IC50
T1 construct: made in house; host or cells: Sf9 insect cells (Bac-to-Bac baculovirus, pFastBac)
Outline: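 Insect-cell lysate of coexpressed human cdk4/cyclin D1 (0.1 μg) phosphorylated bead-bound GST-Rb (0.5 μg) in 50 mM HEPES pH 7.5, 10 mM MgCl2, 1 mM EGTA for 30 min at 37 °C. Filters were washed with TNEN and scintillation-counted; IC50 values derived.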

DU 145 = experiment: In vitro tumor cell proliferation, DU 145; type: cell-based, human; details: read-out: In vitro Tumor Cell Proliferation (IC50, μM) Prostate DUI45
Outline: as §3

MCF-7 = experiment: In vitro tumor cell proliferation, MCF-7; type: cell-based, human; details: read-out: In vitro Tumor Cell Proliferation (IC50, μM) Breast MCF-7
Method: as §1, §2
MCF7 is a human breast adenocarcinoma, hormone-dependent (HTB 22);

A549 = experiment: In vitro tumor cell proliferation, A549; type: cell-based, human; details: read-out: In vitro Tumor Cell Proliferation (IC50, μM) Lung A549
Outline: as §3

cdk2/cyclin E = molecular target: T2, cdk2/cyclin E (Homo sapiens, UniProt P24941); experiment: Cyclin-Dependent Kinase 2 Assay (cdk-2 inhibition); type: biochemical; details: GST-Rb substrate, 30 min at 30° C.
T2 construct: made in house; host or cells: insect cells (baculovirus co-infection)
Outline: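 GST-Rb bound to glutathione-Sepharose beads (0.5 μg/well) as substrate in 50 mM HEPES pH 7.5, 10 mM MgCl2, 1 mM EGTA. Recombinant cdk2/cyclin E at 0.1 μg per 100 μl, 30 min at 30 °C. Reaction stopped by filtration, TNEN washes, scintillation counting.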

HT-29 = experiment: In vitro tumor cell proliferation, HT-29; type: cell-based, human; details: read-out: In vitro Tumor Cell Proliferation (IC50, μM) Colon HT-29 (converted)
Outline: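 HT-29 human colon adenocarcinoma cells plated overnight at 37° C., then exposed to drug for 3 days, medium with fresh drug replaced for a further 4 days. Cells fixed with 10% TCA and stained with 0.4% sulforhodamine B; alternatively, CyQUANT read after 3 days of drug exposure.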

MDA-MB-231 = experiment: In vitro tumor cell proliferation, MDA-MB-231; type: cell-based, human; details: read-out: In vitro Tumor Cell Proliferation (IC50, μM) Breast MDA-MB-231
Outline: as §3

PC-3 = experiment: In vitro tumor cell proliferation, PC-3; type: cell-based, human; details: read-out: In vitro Tumor Cell Proliferation (IC50, μM) Prostate PC-3
Outline: as §3

[1] = Homo sapiens, HCT-15, values without *
[2] = values without *, dihydrochloride
[3] = Homo sapiens, DMS-114, values without *
[4] = Homo sapiens, DU-145, values without *
[5] = Homo sapiens, MCF7, values without *
[6] = Homo sapiens, A549, values without *
[7] = Homo sapiens, HT-29, values without *
[8] = Homo sapiens, MDA-MB-231, values without *
[9] = Homo sapiens, PC-3, values without *

T1 sequence (P11802 whole entry): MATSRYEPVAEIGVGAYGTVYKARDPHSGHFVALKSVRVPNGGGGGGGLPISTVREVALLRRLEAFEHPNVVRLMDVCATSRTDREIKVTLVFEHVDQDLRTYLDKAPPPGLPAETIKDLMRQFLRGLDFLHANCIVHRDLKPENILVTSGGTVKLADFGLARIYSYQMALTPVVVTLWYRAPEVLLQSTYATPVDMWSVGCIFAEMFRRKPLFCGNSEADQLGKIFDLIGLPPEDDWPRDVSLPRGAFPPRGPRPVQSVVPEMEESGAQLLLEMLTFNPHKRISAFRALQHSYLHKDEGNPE
T1 sequence (P24385 whole entry partner): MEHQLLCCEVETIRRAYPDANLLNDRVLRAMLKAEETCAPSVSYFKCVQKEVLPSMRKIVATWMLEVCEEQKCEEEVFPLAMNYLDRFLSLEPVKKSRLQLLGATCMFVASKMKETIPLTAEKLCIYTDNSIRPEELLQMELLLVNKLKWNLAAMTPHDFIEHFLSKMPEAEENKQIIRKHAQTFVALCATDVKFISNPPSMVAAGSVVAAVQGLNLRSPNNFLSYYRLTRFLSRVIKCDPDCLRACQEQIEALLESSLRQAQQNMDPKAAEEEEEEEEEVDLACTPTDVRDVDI

| SMILES | IC50 (HCT-15; [1]) | IC50 (HCT-15; [2]) | IC50 (DMS-114; [3]) | IC50 (DMS-114; [2]) | IC50 (cdk4/cyclin D1) | IC50 (DU 145; [4]) | IC50 (DU 145; [2]) | IC50 (MCF-7; [5]) | IC50 (MCF-7; [2]) | IC50 (A549; [6]) | IC50 (A549; [2]) | IC50 (cdk2/cyclin E) | IC50 (HT-29; [7]) | IC50 (HT-29; [2]) | IC50 (MDA-MB-231; [8]) | IC50 (MDA-MB-231; [2]) | IC50 (PC-3; [9]) | IC50 (PC-3; [2]) |
| --- | --- | --- | --- | --- | --- | --- | --- | --- | --- | --- | --- | --- | --- | --- | --- | --- | --- | --- |
| Cc1cccc(CNc2nc(N[C@H]3CC[C@H](N)CC3)nc3c2ncn3C2CCCC2)c1 [Example 11, 2-[Trans-(4-aminocyclohexyl)amino]-6-[(3-methylbenzyl)amino]-9-cyclopentylpurine dihydrochloride] | 11 µM |  | 4.5 µM | 7.1 µM | 11 µM and 7.4 µM | 4.8 µM | 8 µM |  |  |  |  | 0.15 µM | 8.2 µM | 11 µM | 7.4 µM |  | 5.8 µM | 4.2 µM |
| CC(C)n1cnc2c(NCC3CC3)nc(N[C@H]3CC[C@H](N)CC3)nc21 [Example 32, 2-[Trans-(4-aminocyclohexyl)amino]-6-[(cyclopropyl)methylamino]-9-(2-propyl)purine dihydrochloride] | > 20 µM | 24 µM |  |  |  | 17 µM | 10 µM | 9.3 µM | 5.3 µM |  | 10 µM | 0.21 µM and 0.096 µM |  | 11 µM | 16 µM | 8.1 µM | 9.7 µM | 6.9 µM |
| N[C@H]1CC[C@H](Nc2nc(NCC3CC3)c3ncn(C4CCCC4)c3n2)CC1 [Example 34, 2-[Trans-(4-aminocyclohexyl)amino]-6-[(cyclopropyl)methylamino]-9-cyclopentylpurine dihydrochloride] | 3.3 µM | 3.4 µM | 1.5 µM | 1.4 µM | 0.93 µM and 0.64 µM | 0.97 µM | 1.7 µM |  |  | 1.9 µM | 1.2 µM | 0.024 µM | 1.3 µM | 2.6 µM | 1.2 µM | 2.2 µM |  |  |
| N[C@H]1CC[C@H](Nc2nc(NCc3ccc(Cl)cc3F)c3ncn(C4CCCC4)c3n2)CC1 [Example 40, 2-[Trans-(4-aminocyclohexyl)amino]-6-[(4-chloro-2-fluorobenzyl)amino]-9-cyclopentylpurine dihydrochloride] | 4.2 µM | 3.6 µM | 2.3 µM | 2 µM | 3.1 µM and 1 µM | 2 µM | 3.5 µM | 1.7 µM | 3.3 µM | 2.01 µM | 3.6 µM | 0.19 µM | 1.6 µM | 3.2 µM | 3.1 µM | 3.5 µM |  |  |
| N[C@H]1CC[C@H](Nc2nc(NCc3ccc(F)cc3)c3ncn(C4CCCC4)c3n2)CC1 [Example 50, 2-[Trans-(4-aminocyclohexyl)amino]-6-[(4-fluorobenzyl)amino]-9-cyclopentylpurine dihydrochloride] | 7.4 µM | 7.7 µM | 3.7 µM | 2.4 µM | 7.7 µM and 3.1 µM | 1.9 µM | 3.3 µM | 1.9 µM | 3.3 µM |  |  | 0.094 µM | 4 µM | 4.8 µM | 3.2 µM | 4.5 µM | 2 µM | 2.3 µM |

The next lines start with the values.

| IC50 (HCT-15; [1]) | IC50 (HCT-15; [2]) | IC50 (DMS-114; [3]) | IC50 (DMS-114; [2]) | IC50 (cdk4/cyclin D1) | IC50 (DU 145; [4]) | IC50 (DU 145; [2]) | IC50 (MCF-7; [5]) | IC50 (MCF-7; [2]) | IC50 (A549; [6]) | IC50 (A549; [2]) | IC50 (cdk2/cyclin E) | IC50 (HT-29; [7]) | IC50 (HT-29; [2]) | IC50 (MDA-MB-231; [8]) | IC50 (MDA-MB-231; [2]) | IC50 (PC-3; [9]) | IC50 (PC-3; [2]) | SMILES |
| --- | --- | --- | --- | --- | --- | --- | --- | --- | --- | --- | --- | --- | --- | --- | --- | --- | --- | --- |
| 21 µM | 22 µM | 2.9 µM | 3.7 µM | 0.6 µM | 3.3 µM | 4 µM | 2.5 µM | 3.1 µM | 2.5 µM | 3.1 µM | 0.126 µM | 5.3 µM | 7.9 µM | 6.4 µM | 8.6 µM | 1.9 µM | 2.3 µM | N[C@H]1CC[C@H](Nc2nc(NCC3CCCCO3)c3ncn(C4CCCC4)c3n2)CC1 (relative stereo) [Example 30, 2-[Trans-(4-aminocyclohexyl)amino]-6-[(2-tetrahydropyranyl)methylamino]-9-cyclopentylpurine dihydrochloride] |
| 17 µM | 15 µM | 9 µM |  | 24 µM and 63 µM | 7.5 µM | 11 µM |  |  | 8 µM |  | 0.52 µM | 16 µM | 12 µM | 8.6 µM |  |  |  | N[C@H]1CC[C@H](Nc2nc(NCC3CCCCC3)c3ncn(C4CCCC4)c3n2)CC1 [Example 22, 2-[Trans-(4-aminocyclohexyl)amino]-6-[(cyclohexyl)methylamino]-9-cyclopentylpurine dihydrochloride] |
|  | 15 µM | 9.5 µM | 6.8 µM | 17 µM and 9 µM | 7.2 µM | 11 µM |  |  | 8.4 µM | 11 µM | 0.44 µM | 16 µM |  | 7 µM |  | 8.7 µM |  | N[C@H]1CC[C@H](Nc2nc(NCc3ccc(Cl)cc3)c3ncn(C4CCCC4)c3n2)CC1 [Example 27, 2-[Trans-(4-aminocyclohexyl)amino]-6-[(4-chlorobenzyl)amino]-9-cyclopentylpurine dihydrochloride] |
| 3.8 µM | 2.9 µM | 0.52 µM | 0.63 µM | 0.53 µM | 0.8 µM | 0.92 µM |  |  | 0.92 µM | 1.3 µM | 0.032 µM | 2.4 µM | 1.5 µM | 1.1 µM | 1.6 µM |  |  | N[C@H]1CC[C@H](Nc2nc(NCc3cccc(Cl)c3)c3ncn(C4CCCC4)c3n2)CC1 [Example 29, 2-[Trans-(4-aminocyclohexyl)amino]-6-[(3-chlorobenzyl)amino]-9-cyclopentylpurine dihydrochloride] |
| 5.5 µM | 6.1 µM |  | 1.3 µM |  |  |  | 1 µM | 1.7 µM | 1.7 µM |  |  | 2.2 µM | 2.7 µM |  |  | 0.93 µM | 1.3 µM | N[C@H]1CC[C@H](Nc2nc(NCc3ccccc3)c3ncn(C4CCCC4)c3n2)CC1 [Example 47, 2-[Trans-(4-aminocyclohexyl)amino]-6-[benzylamino]-9-cyclopentylpurine dihydrochloride] |
| 3.1 µM | 3.7 µM and 3.4 µM | 1.8 µM | 1.9 µM and 2 µM and 1.4 µM | 4.4 µM and 5.3 µM | 3.2 µM | 3.4 µM and 2.8 µM and 2.5 µM |  |  | 2.2 µM | 2.3 µM and 2.1 µM | 0.8 µM | 2.8 µM | 2.7 µM and 2.4 µM | 3 µM | 3.1 µM and 2 µM and 1.8 µM | 2 µM | 1.9 µM and 1.6 µM | N[C@H]1CC[C@H](Nc2nc(NCc3ccc(Cl)cc3Cl)c3ncn(C4CCCC4)c3n2)CC1 [Example 48, 2-[Trans-(4-aminocyclohexyl)amino]-6-[(2,4-dichlorobenzyl)amino]-9-cyclopentylpurine dihydrochloride] |
